These results are taken from US12594276B2, “Inhibitors of human immunodeficiency virus replication” (ViiV Healthcare UK (No.5) Limited, priority 2024, dated 2026).

Bounds are passed on as bounds.

Data set [1] is described as follows: Compound cytotoxicity, XTT-based colorimetric assay. The data set is classed as cell-based. The note with it: human; uninfected MT2 cells, day 4, XTT; read-out: CC50. Put shortly:
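Cells seeded as for the antiviral assay but left uninfected (MT2). Compound exposure continued to day 4. XTT reagent added and colour read. CC50 calculated.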
(In general: Tetrazolium dyes change colour on reduction, which living cells bring about.)

Data set [2] relates to recombinant NL4-3 virus (nef section replaced with Renilla luciferase gene) in MT-2 cells. Briefly: HIV cell culture assay (antiviral activity, luciferase readout). The settings on record: Renilla, NL43, MT-2 cells infected for 4-5 days with recombinant NL4-3 Renilla luciferase virus. The data set is classed as cell-based. The procedure, abridged: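 Compound activity was measured as reduction of luciferase in MT-2 cells infected for 4-5 days with serially diluted compound present. EC50 values were calculated with the median effect equation.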

For orientation: CC50 means the concentration at which the toxic effect on the cells reaches its halfway point. As a reminder, the EC50 is the concentration needed to bring the measured effect to its halfway point. Regarding `COCCCn1nc(NS(C)(=O)=O)c2c(Cl)ccc(-n3c([C@H](Cc4cc(F)cc(F)c4)NC(=O)Cn4nc(C(F)F)c5c4C(F)(F)[C@@H]4C[C@H]54)nc4nc(C5CCC(F)(F)CC5)cc(CN5CC(C(F)(F)F)C5)c4c3=O)c21` (atropisomer, axis not shown; (P)) [Example 605, N-[(1S)-1-[(3P)-3-[4-chloro-3-methanesulfonamido-1-(3-methoxypropyl)-1H-indazol-7-yl]-7-(4,4-difluorocyclohexyl)-4-oxo-5-{[3-(trifluoromethyl)azetidin-1-yl]methyl}-3H,4H-pyrido[2,3-d]pyrimidin-2-yl]-2-(3,5-difluorophenyl)ethyl]-2-[(2S,4R)-9-(difluoromethyl)-5,5-difluoro-7,8-diazatricyclo[4.3.0.0^2,^4]nona-1(6),8-dien-7-yl]acetamide], the CC50 at 4 days in data set [1] was > 20 nM. The EC50 in data set [2] came to 0.018 nM.
Taken in the same sequence, the figures for `COCCCn1nc(NS(C)(=O)=O)c2c(Cl)ccc(-n3c([C@H](Cc4cc(F)cc(F)c4)NC(=O)Cn4nc(C(F)F)c5c4C(F)(F)[C@@H]4C[C@H]54)nc4nc(C5CCC(F)(F)CC5)ccc4c3=O)c21` (atropisomer, axis not shown; (P)) [Example 623, N-[(1S)-1-[(3P)-3-[4-chloro-3-methanesulfonamido-1-(3-methoxypropyl)-1H-indazol-7-yl]-7-(4,4-difluorocyclohexyl)-4-oxo-3H,4H-pyrido[2,3-d]pyrimidin-2-yl]-2-(3,5-difluorophenyl)ethyl]-2-[(2S,4R)-9-(difluoromethyl)-5,5-difluoro-7,8-diazatricyclo[4.3.0.0^2,^4]nona-1(6),8-dien-7-yl]acetamide] were > 100 nM and 0.012 nM.
For `CCc1cc(C2CCC(F)(F)CC2)nc2nc([C@H](Cc3cc(F)cc(F)c3)NC(=O)Cn3nc(C(F)F)c4c3C(F)(F)[C@@H]3C[C@H]43)n(-c3ccc(Cl)c4c(NS(C)(=O)=O)nn(CCOC)c34)c(=O)c12` (atropisomer, axis not shown; (P)) [Example 632, N-[(1S)-1-[(3P)-3-[4-chloro-3-methanesulfonamido-1-(2-methoxyethyl)-1H-indazol-7-yl]-7-(4,4-difluorocyclohexyl)-5-ethyl-4-oxo-3H,4H-pyrido[2,3-d]pyrimidin-2-yl]-2-(3,5-difluorophenyl)ethyl]-2-[(2S,4R)-9-(difluoromethyl)-5,5-difluoro-7,8-diazatricyclo[4.3.0.0^2,^4]nona-1(6),8-dien-7-yl]acetamide] the same measures were > 50 nM and 0.021 nM.
Taken in the same sequence, the figures for `CCc1cc(C2CCC(F)(F)CC2)nc2nc([C@H](Cc3cc(F)cc(F)c3)NC(=O)Cn3nc(C(F)F)c4c3C(F)(F)[C@@H]3C[C@H]43)n(-c3ccc(Cl)c4c(NS(C)(=O)=O)nn(CCCOC)c34)c(=O)c12` (atropisomer, axis not shown; (P)) [Example 638, N-[(1S)-1-[(3P)-3-[4-chloro-3-methanesulfonamido-1-(3-methoxypropyl)-1H-indazol-7-yl]-7-(4,4-difluorocyclohexyl)-5-ethyl-4-oxo-3H,4H-pyrido[2,3-d]pyrimidin-2-yl]-2-(3,5-difluorophenyl)ethyl]-2-[(2S,4R)-9-(difluoromethyl)-5,5-difluoro-7,8-diazatricyclo[4.3.0.0^2,^4]nona-1(6),8-dien-7-yl]acetamide] were > 50 nM and 0.018 nM.
For the compound `CCc1cc(C2CCC(F)(F)CC2)nc2nc([C@H](Cc3cc(F)cc(F)c3)NC(=O)Cn3nc(C4CC4)c4c3C(F)(F)[C@@H]3C[C@H]43)n(-c3ccc(Cl)c4c(NS(C)(=O)=O)nn(CCCOC)c34)c(=O)c12` (atropisomer, axis not shown; (P)) [Example 639, N-[(1S)-1-[(3P)-3-[4-chloro-3-methanesulfonamido-1-(3-methoxypropyl)-1H-indazol-7-yl]-7-(4,4-difluorocyclohexyl)-5-ethyl-4-oxo-3H,4H-pyrido[2,3-d]pyrimidin-2-yl]-2-(3,5-difluorophenyl)ethyl]-2-[(2S,4R)-9-cyclopropyl-5,5-difluoro-7,8-diazatricyclo[4.3.0.0^2,^4]nona-1(6),8-dien-7-yl]acetamide], the CC50 at 4 days in data set [1] was > 50 nM. Besides, the EC50 in data set [2] was determined as 0.025 nM.
Taken in the same sequence, the figures for `CS(=O)(=O)Nc1nn(CCN(CCC(F)(F)F)CCC(F)(F)F)c2c(-n3c([C@H](Cc4cc(F)cc(F)c4)NC(=O)Cn4nc(C(F)F)c5c4C(F)(F)[C@@H]4C[C@H]54)nc4nc(C5CCC(F)(F)CC5)ccc4c3=O)ccc(Cl)c12` (atropisomer, axis not shown; (P)) [Example 671, N-[(1S)-1-[(3P)-3-(1-{2-[bis(3,3,3-trifluoropropyl)amino]ethyl}-4-chloro-3-methanesulfonamido-1H-indazol-7-yl)-7-(4,4-difluorocyclohexyl)-4-oxo-3H,4H-pyrido[2,3-d]pyrimidin-2-yl]-2-(3,5-difluorophenyl)ethyl]-2-[(2S,4R)-9-(difluoromethyl)-5,5-difluoro-7,8-diazatricyclo[4.3.0.0^2,^4]nona-1(6),8-dien-7-yl]acetamide] were > 20 nM and 0.027 nM.
For `CS(=O)(=O)Nc1nn(CCN2CCC(F)(F)CC2)c2c(-n3c([C@H](Cc4cc(F)cc(F)c4)NC(=O)Cn4nc(C(F)F)c5c4C(F)(F)[C@@H]4C[C@H]54)nc4nc(C5CCC(F)(F)CC5)cc(CO)c4c3=O)ccc(Cl)c12` (atropisomer, axis not shown; (P)) [Example 675, N-[(1S)-1-[(3P)-3-{4-chloro-1-[2-(4,4-difluoropiperidin-1-yl)ethyl]-3-methanesulfonamido-1H-indazol-7-yl}-7-(4,4-difluorocyclohexyl)-5-(hydroxymethyl)-4-oxo-3H,4H-pyrido[2,3-d]pyrimidin-2-yl]-2-(3,5-difluorophenyl)ethyl]-2-[(2S,4R)-9-(difluoromethyl)-5,5-difluoro-7,8-diazatricyclo[4.3.0.0^2,4]nona-1(6),8-dien-7-yl]acetamide] the same measures were > 20 nM and 0.031 nM.
For `COCc1cc(C2CCC(F)(F)CC2)nc2nc([C@H](Cc3cc(F)cc(F)c3)NC(=O)Cn3nc(C(F)F)c4c3C(F)(F)[C@@H]3C[C@H]43)n(-c3ccc(Cl)c4c(NS(C)(=O)=O)nn(CCN5CCC(F)(F)CC5)c34)c(=O)c12` (atropisomer, axis not shown; (P)) [Example 676, N-[(1S)-1-[(3P)-3-{4-chloro-1-[2-(4,4-difluoropiperidin-1-yl)ethyl]-3-methanesulfonamido-1H-indazol-7-yl}-7-(4,4-difluorocyclohexyl)-5-(methoxymethyl)-4-oxo-3H,4H-pyrido[2,3-d]pyrimidin-2-yl]-2-(3,5-difluorophenyl)ethyl]-2-[(2S,4R)-9-(difluoromethyl)-5,5-difluoro-7,8-diazatricyclo[4.3.0.0^2,^4]nona-1(6),8-dien-7-yl]acetamide] the same measures were > 20 nM and 0.011 nM.
`Cc1cc(C2CCC(F)(F)CC2)nc2nc([C@H](Cc3cc(F)cc(F)c3)NC(=O)Cn3nc(C(F)F)c4c3C(F)(F)[C@@H]3C[C@H]43)n(-c3ccc(Cl)c4c(NS(C)(=O)=O)nn(C[C@@H](C)N5C[C@H](F)C[C@H](F)C5)c34)c(=O)c12` (atropisomer, axis not shown; (P)) [Example 683, N-[(1S)-1-[(3P)-3-{4-chloro-1-[(2R)-2-[(3R,5S)-3,5-difluoropiperidin-1-yl]propyl]-3-methanesulfonamido-1H-indazol-7-yl}-7-(4,4-difluorocyclohexyl)-5-methyl-4-oxo-3H,4H-pyrido[2,3-d]pyrimidin-2-yl]-2-(3,5-difluorophenyl)ethyl]-2-[(2S,4R)-9-(difluoromethyl)-5,5-difluoro-7,8-diazatricyclo[4.3.0.0^2,^4]nona-1(6),8-dien-7-yl]acetamide]: in data set [1], the CC50 at 4 days was > 20 nM. Further, the EC50 in data set [2] is 0.006 nM.
Taken in the same sequence, the figures for `C[C@H](Cn1nc(NS(C)(=O)=O)c2c(Cl)ccc(-n3c([C@H](Cc4cc(F)cc(F)c4)NC(=O)Cn4nc(C(F)F)c5c4C(F)(F)[C@@H]4C[C@H]54)nc4nc(C5CCC(F)(F)CC5)cc(C5CC5)c4c3=O)c21)N1C[C@H](F)C[C@H](F)C1` (atropisomer, axis not shown; (P)) [Example 684, N-[(1S)-1-[(3P)-3-{4-chloro-1-[(2R)-2-[(3R,5S)-3,5-difluoropiperidin-1-yl]propyl]-3-methanesulfonamido-1H-indazol-7-yl}-5-cyclopropyl-7-(4,4-difluorocyclohexyl)-4-oxo-3H,4H-pyrido[2,3-d]pyrimidin-2-yl]-2-(3,5-difluorophenyl)ethyl]-2-[(2S,4R)-9-(difluoromethyl)-5,5-difluoro-7,8-diazatricyclo[4.3.0.0^2,^4]nona-1(6),8-dien-7-yl]acetamide] were > 20 nM and 0.014 nM.
For `Cc1cc(C2(F)CCC(F)(F)CC2)nc2nc([C@H](Cc3cc(F)cc(F)c3)NC(=O)Cn3nc(C(F)F)c4c3C(F)(F)[C@@H]3C[C@H]43)n(-c3ccc(Cl)c4c(NS(C)(=O)=O)nn(C[C@@H](C)N5C[C@H](F)C[C@H](F)C5)c34)c(=O)c12` (atropisomer, axis not shown; (P)) [Example 697, N-[(1S)-1-[(3P)-3-{4-chloro-1-[(2R)-2-[(3R,5S)-3,5-difluoropiperidin-1-yl]propyl]-3-methanesulfonamido-1H-indazol-7-yl}-5-methyl-4-oxo-7-(1,4,4-trifluorocyclohexyl)-3H,4H-pyrido[2,3-d]pyrimidin-2-yl]-2-(3,5-difluorophenyl)ethyl]-2-[(2S,4R)-9-(difluoromethyl)-5,5-difluoro-7,8-diazatricyclo[4.3.0.0^2,^4]nona-1(6),8-dien-7-yl]acetamide] the same measures were > 20 nM and 0.009 nM.
